# Experimental data from ChEMBL document CHEMBL5335767, “Synthesis and study of new siderophore analog-ciprofloxacin conjugates with antibiotic activities against Pseudomonas aeruginosa and Burkholderia spp” (Eur J Med Chem, 2023).
# Key:
# [1] = system: Pseudomonas aeruginosa; experiment: Antibacterial activity against Pseudomonas aeruginosa PAO1 under muller hinton medium by CLSI protocol based microdilution method; type: functional
# [2] = system: Pseudomonas aeruginosa; experiment: Antibacterial activity against Pseudomonas aeruginosa PAO1 under succinate minimum medium by CLSI protocol based microdilution method; type: functional
# [3] = system: Pseudomonas aeruginosa; experiment: Antibacterial activity against Pseudomonas aeruginosa PAO1 under 1 uM FeCl3 medium by CLSI protocol based microdilution method; type: functional
# [4] = system: Pseudomonas aeruginosa; experiment: Antibacterial activity against Pseudomonas aeruginosa PAD07 under muller hinton medium by CLSI protocol based microdilution method; type: functional
# [5] = system: Pseudomonas aeruginosa; experiment: Antibacterial activity against Pseudomonas aeruginosa PAD07 under succinate minimum medium by CLSI protocol based microdilution method; type: functional
# [6] = system: Pseudomonas aeruginosa; experiment: Antibacterial activity against Pseudomonas aeruginosa PAD07 under 1 uM FeCl3 medium by CLSI protocol based microdilution method; type: functional
# [7] = system: Pseudomonas aeruginosa; experiment: Antibacterial activity against Pseudomonas aeruginosa AM85 under muller hinton medium by CLSI protocol based microdilution method; type: functional
# [8] = system: Pseudomonas aeruginosa; experiment: Antibacterial activity against Pseudomonas aeruginosa AM85 under succinate minimum medium by CLSI protocol based microdilution method; type: functional
# [9] = system: Pseudomonas aeruginosa; experiment: Antibacterial activity against Pseudomonas aeruginosa AM85 under 1 uM FeCl3 medium by CLSI protocol based microdilution method; type: functional
# [10] = system: Burkholderia pseudomallei; experiment: Antibacterial activity against Burkholderia pseudomallei BPS2020IRBA001 under muller hinton medium by CLSI protocol based microdilution method; type: functional
# [11] = system: Burkholderia pseudomallei; experiment: Antibacterial activity against Burkholderia pseudomallei BPS2020IRBA001 under succinate minimum medium by CLSI protocol based microdilution method; type: functional
# [12] = system: Burkholderia pseudomallei; experiment: Antibacterial activity against Burkholderia pseudomallei BPS2020IRBA001 under 1 uM FeCl3 medium by CLSI protocol based microdilution method; type: functional
# [13] = system: Burkholderia pseudomallei; experiment: Antibacterial activity against Burkholderia pseudomallei BPS2020IRBA002 under muller hinton medium by CLSI protocol based microdilution method; type: functional
# [14] = system: Burkholderia pseudomallei; experiment: Antibacterial activity against Burkholderia pseudomallei BPS2020IRBA002 under succinate minimum medium by CLSI protocol based microdilution method; type: functional
# [15] = system: Burkholderia pseudomallei; experiment: Antibacterial activity against Burkholderia pseudomallei BPS2020IRBA002 under 1 uM FeCl3 medium by CLSI protocol based microdilution method; type: functional
# [16] = system: Burkholderia pseudomallei; experiment: Antibacterial activity against Burkholderia pseudomallei K96243 under muller hinton medium by CLSI protocol based microdilution method; type: functional
# [17] = system: Burkholderia pseudomallei; experiment: Antibacterial activity against Burkholderia pseudomallei K96243 under succinate minimum medium by CLSI protocol based microdilution method; type: functional
# [18] = system: Burkholderia pseudomallei; experiment: Antibacterial activity against Burkholderia pseudomallei K96243 under 1 uM FeCl3 medium by CLSI protocol based microdilution method; type: functional
# [19] = system: Burkholderia pseudomallei; experiment: Antibacterial activity against Burkholderia pseudomallei BPS2020IRBA003 under muller hinton medium by CLSI protocol based microdilution method; type: functional
# [20] = system: Burkholderia pseudomallei; experiment: Antibacterial activity against Burkholderia pseudomallei BPS2020IRBA003 under succinate minimum medium by CLSI protocol based microdilution method; type: functional
# [21] = system: Burkholderia pseudomallei; experiment: Antibacterial activity against Burkholderia pseudomallei BPS2020IRBA003 under 1 uM FeCl3 medium by CLSI protocol based microdilution method; type: functional
# [22] = system: Burkholderia pseudomallei; experiment: Antibacterial activity against Burkholderia pseudomallei BPS2020IRBA004 under muller hinton medium by CLSI protocol based microdilution method; type: functional
# [23] = system: Burkholderia pseudomallei; experiment: Antibacterial activity against Burkholderia pseudomallei BPS2020IRBA005 under muller hinton medium by CLSI protocol based microdilution method; type: functional
# [24] = system: Burkholderia pseudomallei; experiment: Antibacterial activity against Burkholderia pseudomallei BPS2020IRBA005 under succinate minimum medium by CLSI protocol based microdilution method; type: functional
# [25] = Antibacterial activity against Burkholderia pseudomallei BPS2020IRBA005 under 1 uM FeCl3 medium by CLSI protocol based microdilution method; type: functional; conditions: Burkholderia thailandensis
# [26] = system: Burkholderia thailandensis; experiment: Antibacterial activity against Burkholderia thailandensis E264 under muller hinton medium by CLSI protocol based microdilution method; type: functional
# [27] = system: Burkholderia thailandensis; experiment: Antibacterial activity against Burkholderia thailandensis E264 under succinate minimum medium by CLSI protocol based microdilution method; type: functional
# [28] = system: Burkholderia thailandensis; experiment: Antibacterial activity against Burkholderia thailandensis E264 under 1 uM FeCl3 medium by CLSI protocol based microdilution method; type: functional
# [29] = system: Burkholderia thailandensis; experiment: Antibacterial activity against Burkholderia thailandensis E264TS32C10 under muller hinton medium by CLSI protocol based microdilution method; type: functional
# [30] = system: Burkholderia thailandensis; experiment: Antibacterial activity against Burkholderia thailandensis E264TS32C10 under succinate minimum medium by CLSI protocol based microdilution method; type: functional
# [31] = system: Burkholderia thailandensis; experiment: Antibacterial activity against Burkholderia thailandensis E264TS32C10 under 1 uM FeCl3 medium by CLSI protocol based microdilution method; type: functional
# [32] = system: Burkholderia thailandensis; experiment: Antibacterial activity against Burkholderia thailandensis E264TS32C12 under muller hinton medium by CLSI protocol based microdilution method; type: functional
# [33] = system: Burkholderia thailandensis; experiment: Antibacterial activity against Burkholderia thailandensis E264TS32C12 under succinate minimum medium by CLSI protocol based microdilution method; type: functional
# [34] = system: Burkholderia thailandensis; experiment: Antibacterial activity against Burkholderia thailandensis E264TS32C12 under 1 uM FeCl3 medium by CLSI protocol based microdilution method; type: functional
# [35] = system: Burkholderia thailandensis; experiment: Antibacterial activity against Burkholderia thailandensis E264TS32C47 under muller hinton medium by CLSI protocol based microdilution method; type: functional
# [36] = system: Burkholderia thailandensis; experiment: Antibacterial activity against Burkholderia thailandensis E264TS32C47 under succinate minimum medium by CLSI protocol based microdilution method; type: functional
# [37] = system: Burkholderia thailandensis; experiment: Antibacterial activity against Burkholderia thailandensis E264TS32C47 under 1 uM FeCl3 medium by CLSI protocol based microdilution method; type: functional
# [38] = system: HepG2; experiment: Cytotoxicity against human HepG2 cells at 25 ug/ml after 48 hrs by CellTiter-Glo luminescent cell viability assay; type: toxicity, cell-based; conditions: hepg2, 48 h, dose 25 µg/ml
# [39] = system: Burkholderia pseudomallei; experiment: Antibacterial activity against Burkholderia pseudomallei BPS2020IRBA002 under succinate minimum medium after 48 hrs by CLSI protocol based microdilution method; type: functional
# [40] = system: Burkholderia pseudomallei; experiment: Antibacterial activity against Burkholderia pseudomallei K96243 under succinate minimum medium after 48 hrs by CLSI protocol based microdilution method; type: functional
# [41] = system: Burkholderia pseudomallei; experiment: Antibacterial activity against Burkholderia pseudomallei BPS2020IRBA005 under succinate minimum medium after 48 hrs by CLSI protocol based microdilution method; type: functional
# [42] = system: Burkholderia pseudomallei; experiment: Antibacterial activity against Burkholderia pseudomallei BPS2020IRBA005 under 1 uM FeCl3 medium after 48 hrs by CLSI protocol based microdilution method; type: functional
# [43] = system: Burkholderia thailandensis; experiment: Antibacterial activity against Burkholderia thailandensis E264TS32C10 under succinate minimum medium after 48 hrs by CLSI protocol based microdilution method; type: functional
# [44] = system: HepG2; experiment: Cytotoxicity against human HepG2 cells at 28 ug/ml after 48 hrs by CellTiter-Glo luminescent cell viability assay; type: toxicity, cell-based; conditions: hepg2, 48 h, dose 28 µg/ml
# [45] = system: Lipid bilayer; experiment: Binding affinity to bacterial inner membrane mimic PE/PG/CL/PC (60:20:10:10) assessed as maximum insertion pressure
# [46] = system: Lipopolysaccharide (LPS); experiment: Binding affinity to Pseudomonas aeruginosa lipopolysaccharide assessed as maximum insertion pressure
# [47] = Stability in aqueous solution after 1 months; type: physicochemical; conditions: buffer, 730 h
# [48] = Stability in aqueous solution assessed as half life; type: physicochemical
structure (smiles),measurement,setting,value
O=C(O)c1cn(C2CC2)c2cc(N3CCN(C(=O)c4ccc(O)c(O)c4Cl)CC3)c(F)cc2c1=O,MIC,[1],32 µg/mL
same,MIC,[2],16 µg/mL
same,MIC,[3],16 µg/mL
same,MIC,[4],32 µg/mL
same,MIC,[5],1 µg/mL
same,MIC,[6],16 µg/mL
same,MIC,[7],> 128 µg/mL
same,MIC,[8],> 128 µg/mL
same,MIC,[9],> 128 µg/mL
same,MIC,[10],> 128 µg/mL
same,MIC,[11],128 µg/mL
same,MIC,[12],128 µg/mL
same,MIC,[13],> 128 µg/mL
same,MIC,[14],> 128 µg/mL
same,MIC,[15],> 128 µg/mL
same,MIC,[16],64 µg/mL
same,MIC,[17],32 µg/mL
same,MIC,[18],16 µg/mL
same,MIC,[19],128 µg/mL
same,MIC,[20],128 µg/mL
same,MIC,[21],> 128 µg/mL
same,MIC,[22],> 128 µg/mL
same,MIC,[23],> 128 µg/mL
same,MIC,[24],> 128 µg/mL
same,MIC,[25],> 128 µg/mL
same,MIC,[26],128 µg/mL
same,MIC,[27],128 µg/mL
same,MIC,[28],64 µg/mL
same,MIC,[29],> 128 µg/mL
same,MIC,[30],> 128 µg/mL
same,MIC,[31],> 128 µg/mL
same,MIC,[32],> 128 µg/mL
same,MIC,[33],128 µg/mL
same,MIC,[34],128 µg/mL
same,MIC,[35],128 µg/mL
same,MIC,[36],128 µg/mL
same,MIC,[37],128 µg/mL
same,Activity,[38],Non-Toxic
CC(OC(=O)c1cccc(O)c1O)OC(=O)N1CCN(c2cc3c(cc2F)c(=O)c(C(=O)O)cn3C2CC2)CC1 (centres undefined),MIC,[1],1 µg/mL
same,MIC,[2],1 µg/mL
same,MIC,[3],1 µg/mL
same,MIC,[4],0.25 µg/mL
same,MIC,[5],0.25 µg/mL
same,MIC,[6],2 µg/mL
same,MIC,[7],> 128 µg/mL
same,MIC,[8],> 128 µg/mL
same,MIC,[9],> 128 µg/mL
same,MIC,[10],128 µg/mL
same,MIC,[11],2 µg/mL
same,MIC,[12],32 µg/mL
same,MIC,[13],32 µg/mL
same,MIC,[15],8 µg/mL
same,MIC,[16],8 µg/mL
same,MIC,[18],4 µg/mL
same,MIC,[19],32 µg/mL
same,MIC,[20],8 µg/mL
same,MIC,[21],16 µg/mL
same,MIC,[22],32 µg/mL
same,MIC,[23],128 µg/mL
same,MIC,[26],32 µg/mL
same,MIC,[27],8 µg/mL
same,MIC,[28],8 µg/mL
same,MIC,[29],> 128 µg/mL
same,MIC,[31],32 µg/mL
same,MIC,[32],64 µg/mL
same,MIC,[33],4 µg/mL
same,MIC,[34],16 µg/mL
same,MIC,[35],32 µg/mL
same,MIC,[36],4 µg/mL
same,MIC,[37],8 µg/mL
same,MIC,[39],8 µg/mL
same,MIC,[40],2 µg/mL
same,MIC,[41],8 µg/mL
same,MIC,[42],16 µg/mL
same,MIC,[43],32 µg/mL
same,Activity,[44],Non-Toxic
same,Activity,[45],44 mN/meter
same,Activity,[46],30 mN/meter
same,Stability,[47],Stable
CC(OC(=O)c1cc(=O)c(O)c[nH]1)OC(=O)N1CCN(c2cc3c(cc2F)c(=O)c(C(=O)O)cn3C2CC2)CC1 (centres undefined),MIC,[1],1 µg/mL
same,MIC,[2],2 µg/mL
same,MIC,[3],2 µg/mL
same,MIC,[4],0.25 µg/mL
same,MIC,[5],0.25 µg/mL
same,MIC,[6],0.25 µg/mL
same,MIC,[7],32 µg/mL
same,MIC,[8],64 µg/mL
same,MIC,[9],64 µg/mL
same,MIC,[10],32 µg/mL
same,MIC,[11],32 µg/mL
same,MIC,[12],32 µg/mL
same,MIC,[13],16 µg/mL
same,MIC,[14],16 µg/mL
same,MIC,[15],16 µg/mL
same,MIC,[16],1 µg/mL
same,MIC,[17],1 µg/mL
same,MIC,[18],1 µg/mL
same,MIC,[19],2 µg/mL
same,MIC,[20],2 µg/mL
same,MIC,[21],4 µg/mL
same,MIC,[22],8 µg/mL
same,MIC,[23],16 µg/mL
same,MIC,[24],1 µg/mL
same,MIC,[25],2 µg/mL
same,MIC,[26],4 µg/mL
same,MIC,[27],4 µg/mL
same,MIC,[28],4 µg/mL
same,MIC,[29],128 µg/mL
same,MIC,[30],32 µg/mL
same,MIC,[31],32 µg/mL
same,MIC,[32],16 µg/mL
same,MIC,[33],16 µg/mL
same,MIC,[34],8 µg/mL
same,MIC,[35],8 µg/mL
same,MIC,[36],8 µg/mL
same,MIC,[37],4 µg/mL
same,Activity,[44],Non-Toxic
same,Activity,[45],29.5 mN/meter
same,half-life,[48],168 h
